Laboratory results taken from the CheMixHub ionic liquid set.

Experiment: xn = mol fraction of the nth substance listed

CC[n+]1ccn(C)c1.O=S(=O)([O-])O + O=C([O-])CC(O)(CC(=O)[O-])C(=O)[O-].[Li+].[Li+].[Li+] + O
viscosity [mPa·s], 101 kPa
Conditions	293.15 K	298.15 K	303.15 K	308.15 K	313.15 K
x2 = 0, x1 = 0.0006645	1.023	0.93	0.823	0.75	0.674
x2 = 0, x1 = 0.0007293	1.036	0.943	0.825	0.749	0.689
x2 = 0, x1 = 0.0009254	1.064	0.943	0.844	0.763	0.683

CC[n+]1ccn(C)c1.O=S(=O)([O-])O + O=C([O-])CC(O)(CC(=O)[O-])C(=O)[O-].[NH4+].[NH4+].[NH4+] + O
viscosity [mPa·s], 101 kPa
Conditions	293.15 K	298.15 K	303.15 K	308.15 K	313.15 K
x2 = 0, x1 = 0.0006645	1.023	0.93	0.823	0.75	0.674
x2 = 0, x1 = 0.0007293	1.036	0.943	0.825	0.749	0.689
x2 = 0, x1 = 0.0009254	1.064	0.943	0.844	0.763	0.683
x2 = 0.0007784, x1 = 0.0007287	1.08	0.994	0.875	0.801	0.743
x2 = 0.0007964, x1 = 0.0009246	1.11	0.994	0.895	0.815	0.737
x2 = 0.000825, x1 = 0.0006639	1.07	0.983	0.877	0.803	0.727
x2 = 0.001056, x1 = 0.0007285	1.096	1.005	0.886	0.813	0.756
x2 = 0.001057, x1 = 0.0006638	1.083	0.992	0.886	0.813	0.737
x2 = 0.001176, x1 = 0.0009243	1.133	1.008	0.911	0.832	0.755
x2 = 0.001406, x1 = 0.0009241	1.146	1.017	0.919	0.841	0.765
x2 = 0.001588, x1 = 0.0007281	1.126	1.024	0.906	0.834	0.779
x2 = 0.001621, x1 = 0.0006634	1.115	1.012	0.906	0.835	0.761
x2 = 0.001717, x1 = 0.0006634	1.12	1.015	0.91	0.839	0.764
x2 = 0.001746, x1 = 0.000728	1.135	1.029	0.911	0.84	0.786
x2 = 0.001804, x1 = 0.0009237	1.169	1.03	0.934	0.857	0.782
x2 = 0.002295, x1 = 0.0009233	1.198	1.047	0.951	0.876	0.803
x2 = 0.002321, x1 = 0.0007276	1.168	1.048	0.931	0.861	0.809
x2 = 0.002323, x1 = 0.000663	1.155	1.034	0.93	0.86	0.787
x2 = 0.002686, x1 = 0.0007273	1.189	1.059	0.943	0.874	0.824
x2 = 0.002704, x1 = 0.0006627	1.176	1.046	0.942	0.873	0.801
x2 = 0.002709, x1 = 0.0009229	1.223	1.06	0.965	0.891	0.82

CCCC[P+](CCCC)(CCCC)CCCC.[O-]c1ccccn1 + O=C=O
Conditions	viscosity [mPa·s]
293 K, 101 kPa, x2 = 0.5475	474

CCCCC[P+](CC)(CC)CC.O=S(=O)([N-]S(=O)(=O)C(F)(F)F)C(F)(F)F + O=S(=O)([N-]S(=O)(=O)C(F)(F)F)C(F)(F)F.[Li+]
101.33 kPa
Conditions	electrical conductivity [S/m]	viscosity [mPa·s]
300.3 K, x2 = 0.39	–	1100
324.2 K, x2 = 0.39	0.081	200
330.2 K, x2 = 0.39	0.11	150
336.3 K, x2 = 0.25	0.37	42
341.2 K, x2 = 0.25	–	34
348.2 K, x2 = 0.25	0.52	27
361.2 K, x2 = 0.39	–	37
361.3 K, x2 = 0.39	0.36	–

CCCC[n+]1ccn(C)c1.F[P-](F)(F)(F)(F)F + OCC(F)(F)F
101 kPa, x2 = 0
Conditions	viscosity [mPa·s]
278.15 K	1165
283.15 K	774
288.15 K	533
293.15 K	378
298.15 K	274
303.15 K	203
308.15 K	154
313.15 K	119
318.15 K	93.5
323.15 K	74.6
328.15 K	60.4
333.15 K	49.5

CCCC[n+]1ccn(C)c1.O=S(=O)([N-]S(=O)(=O)C(F)(F)F)C(F)(F)F + OCC(F)(F)F
Conditions	viscosity [mPa·s]
283.15 K, 101 kPa, x2 = 0	107

CC[n+]1ccn(C)c1.O=S(=O)([O-])O + OCC(O)CO
100 kPa, x1 = 0.33
Conditions	viscosity [mPa·s]
298.15 K	320
303.15 K	232
308.15 K	168
313.15 K	127
318.15 K	99
323.15 K	78

Cn1cc[nH+]c1.[Cl-] + OCC(O)CO
100 kPa, x1 = 0.333
Conditions	viscosity [mPa·s]
298.15 K	126.1
313.15 K	70.3
333.15 K	35

CC[n+]1ccn(C)c1.O=S(=O)([O-])O + OCCO
100 kPa
Conditions	viscosity [mPa·s]
303.15 K, x1 = 0.125	15
303.15 K, x1 = 0.5	76
308.15 K, x1 = 0.25	24
313.15 K, x1 = 0.143	12
313.15 K, x1 = 0.33	30
318.15 K, x1 = 0.167	12
323.15 K, x1 = 0.33	21
